Assay results from patent US5178789A, “Liquid detergent with stabilized enzyme” (Genencor International, Inc., priority 1991, dated 1993).
“And” between values parts separate entries of the source, which are not always exact repeats. Equal values may be shown once.

Tests used:
Assay type in all cases: biochemical
[1] = system: subtilisin; experiment: Inhibition assay: subtilisin incubated with inhibitor, rate of substrate hydrolysis monitored; conditions: about 2 mg/ml TOM; summary of Tables I and II
Description: The inhibitor solution is made up in a 20 mM Mops, pH 7 buffer and added to an eppendorf. 0.8 mM subtilisin is added and the mixture is allowed to incubate at room temperature for 15 minutes. After 15 minutes, 99 μl of the mixture is added to a cuvette containing 10 μl of 100 mg/ml SAAApna. The rate of hydrolysis is monitored at […]. A subtilisin control containing no inhibitor is carried out.

[2] = system: subtilisin; experiment: Dilution assay: inhibition mixture diluted, final 1:1000, recovered subtilisin activity; conditions: final dilution 1:1000, 0.1M Tris pH 8.6
Description: The above inhibition assay is diluted 1:10 into the standard subtilisin assay buffer (0.1M Tris, pH 8.6 with 0.005% Tween). 10 μl of this diluted material is then added to a cuvette containing 10 μl of 100 mg/ml SAAPFpna and 980 μl subtilisin Assay Buffer. The rate of reaction is followed at 410 nm. The final dilution is 1:1000.

[3] = system: subtilisin; experiment: Inhibition of subtilisin by TOM in the presence of Tide Liquid, diluted 1/500; conditions: for % Activity Recovered Upon Dilution / Subtilisin activity, Tide 2 mg/ml TOM: 2 mg/ml TOM in Tide Liquid, diluted 1/500
Description: 2 mg/ml of TOM was added to Tide™ Liquid (commercially available from The Procter & Gamble Co). The solution was diluted 1/500 into the standard subtilisin 8.6 Tris buffer. 10 μl aliquots were taken at various times to monitor subtilisin activity. Similar dilutions and assay procedures were carried out with Tide™ Liquid. 100 mg/ml SAAPFpna substrate was used.

## turkey ovomucoid [TOM]
[1]
  active enzyme bound by inhibitor: at least 90%
[2]; 0.4 mg/ml TOM
  Dilution Assay % Recovered Activity: 32%
[2]; 2 mg/ml TOM
  Dilution Assay % Recovered Activity: 45%
[3]; about 2 mg/ml TOM, summary of Tables I and II
  enzyme activity recovered immediately upon appropriate dilution: > 25% and 46%
[3]; time 0 min
  % Activity Recovered Upon Dilution: 46%
  Subtilisin activity, Tide 2 mg/ml TOM: 1.04
[3]; time 15 min
  % Activity Recovered Upon Dilution: 38%
  Subtilisin activity, Tide 2 mg/ml TOM: 0.97
[3]; time 30 min
  % Activity Recovered Upon Dilution: 33%
  Subtilisin activity, Tide 2 mg/ml TOM: 0.965
